As usually defined, the inhibition is the percentage by which the read-out fell short of the control.

Each structure is given as a SMILES string. Entries after “also recorded” stand apart in the source; their conditions may differ.

For one data set, the system named is liver CYP1A. In words: Liver microsomal CYP1A enzymatic activity, inhibition or enhancement. The note with it: for enhancing effect on liver CYP1A activity, in words / inhibitory effect on liver CYP1A activity, in words: at certain concentration (1, 10 or 100 μM); for liver CYP1A activity (% of control group): liver microsomes. On the technique in general: Microsomes from liver hold many membrane-bound enzymes, among them those of drug oxidation.

Data set [1] has as its system CYP1A. The data set is described as above. The following applies: nude, mouse, liver microsomes, pH 7.8, probe 7-ethoxyresorufin.
Experimental: (§3) Nude mice were sacrificed by decapitation. The skin and liver were immediately removed and kept in ice bath or 4° C. […] Connective tissue, blood, and fat were carefully removed from the tissue. Excess water content was removed from the homogenized tissue by tissue papers before the tissue was weighed.
(§4) The suspension of homogenized tissue in potassium chloride solution was transferred into a Teflon pestle-glass homogenizer for homogenization for six (6) times. Then, potassium chloride solution was added into the homogenized suspension to bring the volume to about four (4) times of the homogenized suspension. The diluted suspension was 5 transferred into a centrifuge tube and centrifuged at 4° C., 9000 xg, for twenty (20) minutes. The supernatant containing microsomes from skin or liver tissue and other soluble substance were removed and the volume of the supernatant was brought up to four (4) times of the weight of the tissue by adding potassium chloride solution. The diluted supernatant was transferred into a centrifuge tube and centrifuged at 4° C., 100,000 xg, for one (1) hour (Beckman L8-80M). The precipitate containing the microsomes was obtained. Potassium chloride solution was added into the precipitate to bring the volume up to four (4) times of the weight of the tissue, and the suspension was centrifuged at 4° C., 100,000 xg for one (1) hour, to obtain the washed microsomes, which were stored at −78° C. in 0.1M KH2PO4-K2HPO4 buffer (pH=7.4).
(§5) The enzymatic activity of CYP1A was determined based on the activity of 7-ethoxyresorufin-O-deethylase (i.e., for CYP1A) and 7-methoxyresorufin-O-demethylase (i.e., CYP1A2). […] Except for the blank group, the reaction was triggered by adding 0.54 μM NADPH. In the test tube (16×100 mm), the reaction was carried out for ten (10) minutes at constant temperature (37° C.) with vibration and without light Methanol 2.5 ml was added into the reaction mixture to stop the reaction. Protein precipitate was removed from the reaction mixture by centrifuging the reaction mixture at 180 xg for ten (10) minutes. The supernatant was tested for florescent intensity with 550 nm as the excitation wavelength and 585 nm the emission wavelength. The florescent intensity was compared with 0.01 μM-0.1 μM standard Rhodamine B solution to obtain the reading of the CYP1A enzyme activity.
Data set [2] has as its system CYP1A. In words: in vitro. The note with it: nude, mouse. An excerpt:
(§1) Nude mice were sacrificed by decapitation.
(§2) The precipitate containing the microsomes was obtained.

In another data set the test system is dermal CYP1A. Briefly: Dermal microsomal CYP1A enzymatic activity (7-ethoxyresorufin-O-deethylase), inhibition or enhancement. The note with it: for inhibitory effect on dermal CYP1A activity, in words: at certain concentration (1, 10 or 100 μM); for dermal CYP1A activity (% of control group): skin microsomes, mean of at least 3 repeats; for enhancing effect on dermal CYP1A activity, in words: at certain concentrations (1, 10 or 100 μM).
Text: as §1, §2

Setting [3] is: pH 7.8, dermal CYP1A activity (% of control group).
Setting [4] is: pH 7.8, inhibition of dermal CYP1A activity.

Experimental for liver CYP1A: as §3, §4, §5

For `O=C(O)/C=C/c1ccc(O)cc1O` [Umbellic acid], the “enhancing effect on liver CYP1A activity, in words” value in the data set with liver CYP1A is given as “enhancing effect”. Besides, the activity at 10 min, 100 µM in the data set on CYP1A [1] came out at 121%.

`O=c1c(O)c(-c2ccc(O)c(O)c2)oc2cc(O)cc(O)c12` [Quercetin]: in the data set on CYP1A [2] (pH 7.8), the activity at 10 min, 1 µM was 67.9%; the activity at 10 min, 10 µM worked out at 41.9%; the activity at 10 min, 100 µM is 8.37%; the inhibition at 10 min, 100 µM was ~92%. Also, in the data set on liver CYP1A, the “enhancing effect on liver CYP1A activity, in words” value was “enhancing effect” and the “inhibitory effect on liver CYP1A activity, in words” value is “inhibitory effects; also recorded: most inhibitory effect; also recorded: most effective inhibitors”. Further, in the data set on CYP1A [1], the activity at 10 min, 1 µM amounted to 114%; the activity at 10 min, 10 µM worked out at 86.7%; the activity at 10 min, 100 µM is 19.2%.

Regarding `CCCCCCCCCCCCO` [Lauryl alcohol], in the data set on CYP1A [2] (pH 7.8), the activity at 10 min, 1 µM came to 88.2%; the activity at 10 min, 10 µM is 97.2%; the activity at 10 min, 100 µM was determined as 52.4%; the inhibition at 10 min, 100 µM was ~48%. Moreover, in the data set with liver CYP1A, the “enhancing effect on liver CYP1A activity, in words” value is reported as “enhancing effect”. In addition, in the data set on CYP1A [1], the activity at 10 min, 1 µM was found to be 113%; the activity at 10 min, 10 µM was 115%; the activity at 10 min, 100 µM amounted to 101%.

Regarding `CC12CCC(CC1)C(C)(C)O2` [Cineole], in the data set with CYP1A [2] (setting [3]), the activity at 10 min, 1 µM was 199%; the activity at 10 min, 10 µM worked out at 130%; the activity at 10 min, 100 µM is 96.4%. The inhibition at 10 min, 100 µM with CYP1A [2] (setting [4]) was ~5%. In the data set on liver CYP1A, the “enhancing effect on liver CYP1A activity, in words” value is on record as “enhancing effect” and the “inhibitory effect on liver CYP1A activity, in words” value was “inhibitory effects”. For the same compound, in the data set on CYP1A [1], the activity at 10 min, 1 µM is 117%; the activity at 10 min, 10 µM turned out to be 99.9%; the activity at 10 min, 100 µM was 94.7%.

As to `O=c1cc(-c2ccccc2)oc2cc(O)c(O)c(O)c12` [Baicalein], in the data set with dermal CYP1A, the “inhibitory effect on dermal CYP1A activity, in words” value is “inhibition effects”. For the same compound, the “dermal CYP1A activity (% of control group)” value amounted to 64.73% in the data set with dermal CYP1A (compound 1 μM), 48.84% in the data set with dermal CYP1A (compound 10 μM) and 55.82% in the data set with dermal CYP1A (compound 100 μM). For the same compound, the “inhibition of dermal CYP1A activity” value with dermal CYP1A (compound 10 μM) is on record as “about 47%”. The “enhancing effect on liver CYP1A activity, in words” value in the data set on liver CYP1A is “enhancing effect”. Besides, the “liver CYP1A activity (% of control group)” value in the data set with liver CYP1A (compound 1 μM) was found to be 110.67%; in the data set on liver CYP1A (compound 10 μM), 114.18%.

With `Oc1cc(O)c2c(c1)O[C@H](c1ccc(O)c(O)c1)[C@@H](O)C2` [(+)-Catechin], the “inhibitory effect on dermal CYP1A activity, in words” value in the data set on dermal CYP1A is recorded as “inhibition effects”. In the data set with dermal CYP1A, the “enhancing effect on dermal CYP1A activity, in words” value was “enhancing effects”. In addition, the “inhibition of dermal CYP1A activity” value in the data set on dermal CYP1A (compound 1 μM) is “about 22%”. For the same compound, the results for the “dermal CYP1A activity (% of control group)” value with dermal CYP1A (compound 1 μM), with dermal CYP1A (compound 10 μM) and with dermal CYP1A (compound 100 μM) were 78.10%, 91.97% and 99.99%, respectively. Besides, in the data set on liver CYP1A, the “enhancing effect on liver CYP1A activity, in words” value is listed as “enhancing effect”. The “inhibitory effect on liver CYP1A activity, in words” value in the data set with liver CYP1A is on record as “inhibitory effects”. Further, the “liver CYP1A activity (% of control group)” value is on record as 90.00% in the data set on liver CYP1A (compound 1 μM), 120.23% with liver CYP1A (compound 10 μM) and 116.48% in the data set with liver CYP1A (compound 100 μM).

For `Oc1cc(O)c2c(c1)O[C@@H](c1ccc(O)c(O)c1)[C@@H](O)C2` [(+)-Epicatechin], the “inhibitory effect on dermal CYP1A activity, in words” value in the data set on dermal CYP1A is listed as “inhibition effects”. Moreover, the “enhancing effect on dermal CYP1A activity, in words” value in the data set on dermal CYP1A is “enhancing effects”. In the data set with dermal CYP1A (compound 1 μM), the “inhibition of dermal CYP1A activity” value is recorded as “about 34%”. Besides, the “dermal CYP1A activity (% of control group)” value in the data set with dermal CYP1A (compound 1 μM) came out at 65.55%; with dermal CYP1A (compound 10 μM) it was 86.15%; in the data set with dermal CYP1A (compound 100 μM), 105.09%. Also, the “enhancing effect on liver CYP1A activity, in words” value in the data set with liver CYP1A is listed as “enhancing effect”. The entries for the “liver CYP1A activity (% of control group)” value in the data set with liver CYP1A (compound 1 μM), in the data set on liver CYP1A (compound 10 μM) and in the data set on liver CYP1A (compound 100 μM) were 124.29%, 129.86% and 130.95%, respectively.

On to `O=C(O)c1cc(O)c(O)c(O)c1` [Gallic acid], for which, in the data set on CYP1A [2] (setting [3]), the activity at 10 min, 1 µM is 102%; the activity at 10 min, 10 µM is 107%; the activity at 10 min, 100 µM came out at 88.2%. In addition, the inhibition at 10 min, 100 µM in the data set on CYP1A [2] (setting [4]) is ~12%. For the same compound, in the data set with CYP1A [1], the activity at 10 min, 10 µM is 123% and the activity at 10 min, 100 µM is 105%.

With `O=c1cc(-c2ccc(O)c(O)c2)oc2cc(O)cc(O)c12` [Luteolin], in the data set with CYP1A [2] (setting [3]), the activity at 10 min, 1 µM came out at 59.1%; the activity at 10 min, 10 µM is 19.4%; the activity at 10 min, 100 µM is 10.4%. Further, the inhibition at 10 min, 100 µM with CYP1A [2] (setting [4]) is ~90%. Also, in the data set with CYP1A [1], the activity at 10 min, 1 µM amounted to 115%; the activity at 10 min, 10 µM was found to be 104%; the activity at 10 min, 100 µM is 33.4%.

For the origin of these results see US20030166583A1, “Dermal cytochrome P450 1A inhibitors and enhancers” (priority 2002, published 2003).
